According to patent US20260215425A1, “NITRIFICATION INHIBITORS” (The University of Melbourne, priority 2022, published 2026):

Experiments:
N. europaea = assay: standard nitrification inhibition assay (NO2- production, Griess); type: cell-based, Nitrosomonas europaea; details: [NH4+]=3 mM, [inhibitor]=0.3 mM (10 mol %), pH 7.5, 30° C., 60 min
Procedure: (§1) Cells of N. multiformis and N. europaea were cultivated to the mid-exponential growth phase (OD600=0.1, [NO2^−] approximately 800 μM) and harvested by filtration onto 0.2 μm membrane filters (Mixed Cellulose Ester (MCE), Sigma Aldrich). The cells were washed with 2×100 mL of 0.1 M sodium phosphate buffer (NaPB), containing 0.2 mM MgSO4 at pH 7.5. The cells were washed from the filter paper by transferring it to a sterile 50 mL tube and resuspending in NaPB (15 mL), followed by 5 s of vortexing (Ratek, Australia) and 3 s of sonication (Vevor, Australia). […] Experiments were performed in triplicate.
(§2) In a deep 96-well plate (2 mL capacity), 980 μL of the bacterial inoculum (OD600=0.03) was added to the inhibitor (10 μL, 30 mmol L^−1 in Milli-Q water), the solutions were mixed thoroughly and pre-incubated in the dark for 5 minutes at 100 rpm and 30° C. (NH4)2SO4 (10 μL, 150 mM, from a prepared sterile solution containing 19.8 g L^−1 (NH4)2SO4 in Milli-Q water) was then added using a multi-channel pipette. The plate was covered with a with an O2 permeable membrane to ensure aeration (Breathe-Easy® sealing membrane, Sigma Aldrich) and incubated in a temperature-regulated rotary incubator (Ratek, Australia) in the dark for 60 minutes at 30° C. and 100 rpm. An aliquot of the reaction solution ([…]) was transferred to a 96-well spectrophotometric plate to which 50 µL of Griess reagent was added. The colour was allowed to develop for 15 minutes at room temperature, and the absorbance was measured at 540 nm. Each assay was accompanied by control treatments to determine the 0% and 100% NO2 signal. The percentage inhibition was calculated according to eqn. 1 from the NO2 production of the cells in NaPB (i) without additive (‘untreated cells’: 0% signal), (ii) with [NH4^+]=3 mM (‘uninhibited’ cells: 100% signal) and (iii) with [NH4^+]=3 mM and [inhibitor]=0.3 mM and 0.03 mM (10 mol % and 1 mol % of [NH4^+], ‘inhibited cells’). Experiments were performed in triplicate.

N. multiformis = assay: as above; type: cell-based, Nitrosospira multiformis; details: [NH4+]=3 mM, [inhibitor]=0.3 mM (10 mol %), pH 7.5, 30° C., 60 min
Procedure: as §1, §2

Row | SMILES | % Inhibition NE (N. europaea) [%] | % Inhibition NM (N. multiformis) [%]
1 | C#CCCn1cc(CCC)nn1 [Compound 2] | 21 ± 2 | 40 ± 1
2 | C#CCOC(=O)Cn1cc(CCC)nn1 [Compound 3] | 49 ± 2 | 47 ± 2
3 | C#CCNC(=O)Cn1cc(CCC)nn1 [Compound 4] | 7.1 ± 1 | 
